Reference: patent publication US10196357B2, “Biaryl compositions and methods for modulating a kinase cascade” (Athenex, Inc., priority 2007, dated 2019)
Like-named read-outs stand apart in the source and are kept apart here.

What was measured:
HT29 cell line = test: BrdU cell growth inhibition, HT29; assay type: cell-based, human; conditions: for activity at 0.05 µM / activity at 0.5 µM / activity at 5 µM: HT-29, read-out: HT-29 Growth, % of Control Mean, n = 3; for activity at 0.05 µM: 50 nM; for activity at 0.5 µM: 500 nM
Protocol: (§1) The GI50s for several of the compounds of the invention were assayed as described herein.
The HT29 cell line is a NCI standard human colon carcinoma cell line.
(§2) In the BrdU Assay for cell growth inhibition, quantitation of cell proliferation was based on the measurement of BrdU incorporation during DNA synthesis. The Cell Proliferation ELISA BrdU assay kit (colorimetric) was obtained from Roche Applied Science and performed as per vendor instructions.
(§3) The growth inhibition (GI) is determined from the formula GI=(T0−Tn×100/T0−CONn) where T0 is the BrdU growth of untreated cells at time “0”, Tn is the BrdU growth of treated cells at day “n” and CONn is the control BrdU growth of control cells at day “n”. The GI50 was extrapolated and the data plotted using XL-Fit 4.0 software.
(§4) For 96 well culture plate experiments, c-Src 3T3 medium was supplemented with 10 mM HEPES buffer. HT-29 cells were seeded in standard tissue culture 96-well plates and c-Src 3T3 cells were seeded in 96-well plates coated with Poly-D-lysine (BIOCOAT™). To increase CO2 diffusion, c-Src 3T3 96-well plates were incubated with their lids raised by ˜2 mm using sterile rubber caps.
(§5) Samples were reconstituted in DMSO at 20 mM and intermediate dilutions made using DMEM containing 10% FBS. […] Plates were assayed for BrdU and the data analyzed as above for GI50.
(§6) All compounds were initially prepared as 20 mM DMSO stock solutions and then diluted into buffer for the in vitro tumor growth assays. NG means no cell growth beyond the control and T means the number of cells in the drug treated wells was less than in the control (i.e. net cell loss).
Growth Inhibition. […] T1 values≤T0 values were designated as T, cytotoxicity.

c-Src 3T3 cells = test: BrdU cell growth inhibition, c-Src 3T3; assay type: cell-based, mouse; conditions: for GI50: c-Src 3T3 (c-Src527F/NIH3T3) cells; for activity at 0.1 µM / activity at 1 µM / activity at 10 µM: NIH3T3, read-out: c-Src 3T3 Growth, % of Control Mean, n = 3; for activity at 0.1 µM: 100 nM
Protocol: as §1
The cells were routinely cultured in DMEM supplemented with Fetal Bovine Serum (2.0% v/V), L-glutamine (2 mM) and Sodium Pyruvate (1 mM).
as §2, §3, §4, §5, §6

[1] = Homo sapiens, HT-29, HT29 (Colon) cells, read-out: GI50

| SMILES | GI50 (HT29 cell line; HT29 (Colon) cells) | GI50 (HT29 cell line; [1]) | GI50 (c-Src 3T3 cells) | activity at 0.05 µM (HT29 cell line; Homo sapiens) | activity at 0.5 µM (HT29 cell line; Homo sapiens) | activity at 5 µM (HT29 cell line; Homo sapiens) | activity at 0.1 µM (c-Src 3T3 cells; Mus musculus) | activity at 1 µM (c-Src 3T3 cells; Mus musculus) | activity at 10 µM (c-Src 3T3 cells; Mus musculus) | GI50 (c-Src 3T3 cells; Mus musculus, read-out: GI50) |
| --- | --- | --- | --- | --- | --- | --- | --- | --- | --- | --- |
| O=C(Cc1ccc(-c2ccccc2)c[n+]1[O-])NCc1cccc(F)c1 [KX1-329 N-oxide] | inactive (c-Src 3T3); inactive (HT-29) | – | inactive (c-Src 3T3); inactive (HT-29) | – | – | – | – | – | – | – |
| CCOc1ccccc1-c1ccc(CC(=O)NCc2cccc(F)c2)nc1 [KX2-360] | – | – | – | 91% | < 0% | < 0% | 106% | < 0% | < 0% | – |
| CC(C)COc1cc(F)cc(CNC(=O)Cc2ccc(-c3ccc(CN4CCOCC4)cc3)cn2)c1 [KX2-363] | – | – | – | 92% | 67% | < 0% | 92% | 70% | 100% | – |
| O=C(Cc1ccc(-c2ccc(CN3CCCCC3)cc2)cn1)NCc1cccc(F)c1 [KX2-364] | – | – | – | 105% | 80% | < 0% | 92% | 81% | < 0% | – |
| CC(C)COc1cc(F)cc(CNC(=O)Cc2ccc(-c3ccc(CN4CCCCC4)cc3)cn2)c1 [KX2-366] | – | – | – | 89% | 54% | < 0% | 103% | 83% | < 0% | – |
| CC(C)COc1cc(F)cc(CNC(=O)Cc2ccc(-c3ccc(OCCN4CCN(C)CC4)cc3)cn2)c1 [KX2-367] | – | – | – | 64% | 6% | < 0% | 102% | < 0% | < 0% | – |
| CCOc1ccc(-c2ccc(CC(=O)NCc3cc(F)cc(OCC(C)C)c3)nc2)cc1 [KX2-368] | – | – | – | 107% | 70% | < 0% | 99% | 101% | 27% | – |
| CCOc1ccccc1-c1ccc(CC(=O)NCc2cc(F)cc(OCC(C)C)c2)nc1 [KX2-369] | – | – | – | 87% | 72% | < 0% | 100% | 101% | < 0% | – |
| CC(C)COc1cc(F)cc(CNC(=O)Cc2ccc(-c3ccc(N4CCOCC4)cc3)cn2)c1 [KX2-370] | – | – | – | 112% | 93% | 81% | 104% | 105% | 106% | – |
| CC(C)COc1cc(F)cc(CNC(=O)Cc2ccc(-c3ccc(N4CCCCC4)cc3)cn2)c1 [KX2-371] | – | – | – | 98% | 33% | 16% | 75% | 72% | 16% | – |
| O=C(Cc1ccc(-c2ccc(OCCCN3CCCCC3)cc2)cn1)NCc1cccc(F)c1 [KX2-374] | – | – | – | 74% | 57% | < 0% | 110% | 84% | < 0% | – |
| CCOc1ccc(-c2ccc(CC(=O)NCc3cc(F)cc(OCCN4CCOCC4)c3)nc2)cc1 [KX2-378] | – | – | – | 88% | 61% | < 0% | 122% | 107% | 48% | – |
| CCOc1ccc(-c2ccc(CC(=O)NCc3cc(F)cc(N4CCCCC4)c3)nc2)cc1 [KX2-379] | – | – | – | 89% | 88% | < 0% | 106% | 104% | < 0% | – |
| CCOc1ccc(-c2ccc(CC(=O)NCc3cc(F)cc(OCCN4CCCCC4)c3)nc2)cc1 [KX2-380] | – | – | – | 100% | 50% | < 0% | 124% | 119% | < 0% | – |
| CCOc1ccc(-c2ccc(CC(=O)NCc3cc(F)cc(N4CCOCC4)c3)nc2)cc1 [KX2-382] | – | – | – | 80% | 97% | 50% | 117% | 114% | 103% | – |
| CCOc1ccc(-c2ccc(CC(=O)NCc3cccc(F)c3)nc2)c(OCCN2CCN(C)CC2)c1 [KX2-384] | inactive | – | – | – | – | – | – | – | – | 1430 nM |
| CC(C)COc1cc(F)cc(CNC(=O)Cc2ccc(-c3ccc(OCCN4CCCCC4)cc3)cn2)c1 [KX2-386] | inactive | – | – | – | – | – | – | – | – | 897 nM |

Further lines, with some results ahead:

| GI50 (HT29 cell line; HT29 (Colon) cells) | GI50 (HT29 cell line; [1]) | SMILES | GI50 (c-Src 3T3 cells) | activity at 0.05 µM (HT29 cell line; Homo sapiens) | activity at 0.5 µM (HT29 cell line; Homo sapiens) | activity at 5 µM (HT29 cell line; Homo sapiens) | activity at 0.1 µM (c-Src 3T3 cells; Mus musculus) | activity at 1 µM (c-Src 3T3 cells; Mus musculus) | activity at 10 µM (c-Src 3T3 cells; Mus musculus) | GI50 (c-Src 3T3 cells; Mus musculus, read-out: GI50) |
| --- | --- | --- | --- | --- | --- | --- | --- | --- | --- | --- |
| – | 45 nM | CCOc1ccc(-c2ccc(CC(=O)NCc3cccc(F)c3)nc2)cc1 [KX2-359] | – | < 0% | < 0% | < 0% | < 0% | < 0% | < 0% | 34 nM |
| – | 56 nM | O=C(Cc1ccc(-c2ccc(CN3CCOCC3)cc2)cn1)NCc1cccc(F)c1 [KX2-362] | – | 86% | < 0% | < 0% | 101% | < 0% | < 0% | 56 nM |
| – | 93 nM | CN1CCN(CCOc2ccc(-c3ccc(CC(=O)NCc4cccc(F)c4)nc3)cc2)CC1 [KX2-365] | – | 88% | < 0% | < 0% | 88% | < 0% | < 0% | 133 nM |
| – | 67 nM | O=C(Cc1ccc(-c2ccc(N3CCCCC3)cc2)cn1)NCc1cccc(F)c1 [KX2-372] | – | < 0% | < 0% | < 0% | < 0% | < 0% | < 0% | 58 nM |
| – | 639 nM | CN1CCN(c2ccc(-c3ccc(CC(=O)NCc4cccc(F)c4)nc3)cc2)CC1 [KX2-373] | – | 64% | < 0% | < 0% | 97% | < 0% | < 0% | 96 nM |
| – | 354 nM | O=C(Cc1ccc(-c2ccc(OCCN3CCCCC3)cc2)cn1)NCc1cccc(F)c1 [KX2-375] | – | 99% | < 0% | < 0% | < 0% | < 0% | < 0% | 206 nM |
| – | > 400 nM | CN1CCN(Cc2ccc(-c3ccc(CC(=O)NCc4cccc(F)c4)nc3)cc2)CC1 [KX2-376] | – | 96% | 93% | < 0% | < 0% | < 0% | < 0% | > 1600 nM |
| – | 111 nM | O=C(Cc1ccc(-c2ccc(OCCN3CCOCC3)cc2)cn1)NCc1cccc(F)c1 [KX2-377] | – | < 0% | < 0% | < 0% | < 0% | < 0% | < 0% | 118 nM |
| – | 375 nM | CCOc1ccc(-c2ccc(CC(=O)NCc3cc(F)cc(OCC4CCN(C)CC4)c3)nc2)cc1 [KX2-381] | – | 58% | < 0% | < 0% | 116% | < 0% | < 0% | 914 nM |
| – | 248 nM | O=C(Cc1ccc(-c2ccc(OCCCN3CCOCC3)cc2)cn1)NCc1cccc(F)c1 [KX2-383] | – | – | – | – | – | – | – | 327 nM |
| – | 1860 nM | CC(C)COc1cc(F)cc(CNC(=O)Cc2ccc(-c3ccc(OCCN4CCOCC4)cc3)cn2)c1 [KX2-387] | inactive | – | – | – | – | – | – | – |
| – | 906 nM | CCOc1ccc(-c2ccc(CC(=O)NCc3cc(F)cc(N4CCN(C)CC4)c3)nc2)cc1 [KX2-388] | – | – | – | – | – | – | – | > 1600 nM |
| inactive | – | CCOc1ccc(-c2ccc(CC(=O)NCc3cccc(F)c3)nc2)c(OCCN2CCCCC2)c1 [KX2-389] | Inactive | – | – | – | – | – | – | – |
| – | 868 nM | CN1CCN(CCCOc2ccc(-c3ccc(CC(=O)NCc4cccc(F)c4)nc3)cc2)CC1 [KX2-390] | – | – | – | – | – | – | – | 797 nM |
| – | 21 nM | O=C(Cc1ccc(-c2ccc(OCCN3CCOCC3)cc2F)cn1)NCc1cccc(F)c1 [KX2-392] | – | – | – | – | – | – | – | 13 nM |
